The assay addresses T1, NCEH1 (Homo sapiens, UniProt Q6PIU2).
T1 sequence (Q6PIU2 1-408): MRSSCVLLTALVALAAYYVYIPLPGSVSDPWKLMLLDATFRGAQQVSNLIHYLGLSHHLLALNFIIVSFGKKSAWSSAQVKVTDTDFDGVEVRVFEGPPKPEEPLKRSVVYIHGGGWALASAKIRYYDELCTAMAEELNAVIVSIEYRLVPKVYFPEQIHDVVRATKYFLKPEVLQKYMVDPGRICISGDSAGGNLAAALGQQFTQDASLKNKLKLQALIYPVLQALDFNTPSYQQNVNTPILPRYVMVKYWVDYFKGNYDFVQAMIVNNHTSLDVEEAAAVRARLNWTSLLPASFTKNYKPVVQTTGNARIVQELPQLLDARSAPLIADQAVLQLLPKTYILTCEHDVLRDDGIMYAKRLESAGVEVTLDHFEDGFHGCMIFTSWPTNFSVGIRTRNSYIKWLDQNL
The assay can be described thus: ADPL imaging and quantification of endogenous NCEH1 activity in live cells (inhibitor profiling by ADPL). The class given is cell-based. On the set-up: endogenous NCEH1 activity in SKOV3 cells; endogenous in cells; host or cells: SKOV3; wild-type PC3; PAFAH2-expressing PC3. Conditions: for IC50: inhibitor 4 hr before FP-Bio (2 μM, 40 min), read-out: apparent IC50, inhibition of NCEH1 by ADPL. The method, then: Cells were seeded in the 12-well chamber slide, typically at 10,000-30,000 cells per well (Ibidi, #81201). To get an even distribution of the cells, the chamber slide was pre-wetted with cell culture medium, drained off, and the chamber was left at room temperature for 5-10 min after seeding. Cells at 80-90% confluency were pulse treated with either FP-Bio (2 μM) in DMEM and incubated at 37° C. for 40 min or Capthepsin probe (5 μM) in complete medium and incubated at 37° C. for 3 hr. Cells were washed with PBS, fixed with 4% paraformaldehyde in PBS at room temperature for 15 minutes, washed twice with PBS for 5 minutes each at room temperature with orbital shaking and then permeabilized in 0.5% Triton X-100 in PBS at room temperature for 15 minutes. Finally, cells were washed twice with 0.05% Tween-20 in PBS for 5 minutes each at room temperature with orbital shaking.
Prior to antibody incubation, the chamber was removed and the well boundaries delineated with the hydrophobic barrier pen (Vector laboratories, #H-4000). One-drop Duolink blocking buffer (Sigma, #DUO92004) was added and the slide was incubated at 37° C. for 30 minutes in a humidified chamber. The blocking solution was removed by tapping, followed by addition of 10 μg/ml of the anti-biotin (rabbit, Abcam, #G196266) and primary antibody for the protein of interest: anti-FLAG (mouse, 4 μg/ml of Sigma, #F1804-5 mg); anti-NCEH1 (mouse, 4 μg/ml of in-house polyclonal), anti-FAAH (mouse, 4 μg/ml of Abcam, #ab54615) for serine hydrolase members. […]
For quantitative analysis single cell boundaries were identified manually using the DIC image. Then the “ROI Manager” tool in Image) was utilized to add all the cell outlines as a collection and overlay with the ADPL channel to measure per-cell fluorescence intensity. Typical quantitative comparisons were made using data from three or more independent fields of view per independent biological replicate condition. […]

Each structure is given as a SMILES string. Read-outs that look alike come from different tables or passages of the source.

In the case of `CC(C)c1ccccc1OC(=O)NCCc1ccc2ccccc2c1` [JW480], the 50% inhibitory concentration (IC50) (commonly the concentration needed to halve the response being measured) was 8 nM (PAFAH2 expressing PC3 cells) and 6 nM (wild-type PC3 cells). Further, the “NCEH1 activity by ADPL imaging and quantification relative to vehicle” value (SKOV3 cells, 1 μM, 4 hr pre-treatment before FP-Bio) is on record as “significantly reduced”.

The values are drawn from US12276654B2, “Chemical probe-dependent evaluation of protein activity and uses thereof” (The University of Chicago, priority 2017, dated 2025).
